Where a name gives a salt, the structure may show the parent alone.
melting point	Structure (SMILES)
146 to 147 °C	CCOc1ccc(C2=NN(c3ccc(C(=O)N4CCN(c5ccccc5)CC4)cc3)C(=O)[C@@H]3CC=CC[C@H]23)cc1OCC.Cl
247 to 249 °C	COc1ccc(C2=NN(Cc3ccc(C(=O)N4CCN(CCCN(C)C)CC4)cc3)C(=O)[C@H]3CC=CC[C@@H]23)c2c1OC(C)(C)C2.Cl.Cl (relative stereo)
142 to 145 °C	CCOc1ccc(C2=NN(c3ccc(C(=O)N4CCN(c5cccc6[nH]ccc56)CC4)cc3)C(=O)[C@@H]3CC=CC[C@H]23)cc1OCC.Cl [Compound 21, (4aS,8aR)-4-(3,4-Diethoxy-phenyl)-2-(4-{1-[4-(1H-indol-4-yl)-piperazin-1-yl]-methanoyl}-phenyl)-4a,5,8,8a-tetrahydro-2H-phthalazin-1-one hydrochloride]
160 to 161 °C	COc1ccc(C2=NN(c3ccc(C(=O)N4CCN(CC(=O)N5CCCC5)CC4)cc3)C(=O)[C@@H]3CC=CC[C@H]23)cc1OC.Cl
137 to 139 °C	COc1ccc(C2=NN(c3ccc(C(=O)N4CCN(c5c(Cl)cncc5Cl)CC4)cc3)C(=O)[C@@H]3CC=CC[C@H]23)cc1OC [Compound 15, (4aS,8aR)-2-(4-{1-[4-(3,5-Dichloropyridin-4-yl)-piperazin-1-yl]-methanoyl}-phenyl)-4-(3,4-dimethoxyphenyl)-4a,5,8,8a-tetrahydro-2H-phthalazin-1-one]
210 to 211 °C	COc1ccc(C2=NN(Cc3ccc(C(=O)N4CCN(CCN5CCOCC5)CC4)cc3)C(=O)[C@H]3CC=CC[C@@H]23)c2c1OC(C)(C)C2.Cl.Cl (relative stereo)
271 °C (dec.)	COc1ccc(C2=NN(c3ccc(C(=O)N4CCN(CCN5CCOCC5)CC4)cc3)C(=O)[C@@H]3CC=CC[C@H]23)c2c1OC(C)(C)C2.Cl.Cl [Compound 20, (4aS,8aR)-4-(7-Methoxy-2,2-dimethyl-2,3-dihydro-benzofuran-4-yl)-2-(4-{1-[4-(2-morpholin-4-yl-ethyl)-piperazin-1-yl]-methanoyl}-phenyl)-4a,5,8,8a-tetrahydro-2H-phthalazin-1-one dihydrochloride]

The remaining lines, values behind:

Structure (SMILES)	melting point
CCOc1ccc(C2=NN(c3ccc(C(=O)N4CCN(CCCN5CCOCC5)CC4)cc3)C(=O)[C@@H]3CC=CC[C@H]23)cc1OCC.Cl.Cl [Compound 22, (4aS,8aR)-4-(3,4-Diethoxy-phenyl)-2-(4-{1-[4-(3-morpholin-4-yl-propyl)-piperazin-1-yl]-methanoyl}-phenyl)-4a,5,8,8a-tetrahydro-2H-phthalazin-1-one dihydrochloride]	170 to 171 °C
COc1ccc(C2=NN(c3ccc(C(=O)N4CCN(CC(=O)N(C)C)CC4)cc3)C(=O)[C@@H]3CC=CC[C@H]23)cc1OC.Cl	93 to 94 °C
CCOc1ccc(C2=NN(c3ccc(C(=O)N4CCN(C(=O)c5ccco5)CC4)cc3)C(=O)[C@@H]3CC=CC[C@H]23)cc1OCC [Compound 4, (4aS,8aR)-4-(3,4-Diethoxyphenyl)-2-(4-{1-[4-(1-furan-2-yl-methanoyl)-piperazin-1-yl]-methanoyl}-phenyl)-4a,5,8,8a-tetrahydro-2H-phthalazin-1-one]	114 to 115 °C
COc1ccc(C2=NN(c3ccc(C(=O)N4CCN(C/C=C/c5ccccc5)CC4)cc3)C(=O)[C@@H]3CC=CC[C@H]23)c2c1OC(C)(C)C2.Cl [Compound 8, (4aS,8aR)-4-(7-methoxy-2,2-dimethyl-2,3-dihydro-benzofuran-4-yl)-2-(4-{1-[4-((E)-3-phenyl-allyl)-piperazin-1-yl]-methanoyl}-phenyl)-4a,5,8,8a-tetrahydro-2H-phthalazin-1-one hydrochloride]	230 to 231 °C
CCOC(=O)N1CCN(C(=O)c2ccc(N3N=C(c4ccc(OCC)c(OCC)c4)[C@H]4CC=CC[C@H]4C3=O)cc2)CC1 [Compound 7, 4-(1-{4-[(4aS,8aR)-4-(3,4-Diethoxyphenyl)-1-oxo-4a,5,8,8a-tetrahydro-1H-phthalazin-2-yl]-phenyl}-methanoyl)-piperazine-1-carboxylic acid ethyl ester]	146 to 147 °C
CCOc1ccc(C2=NN(c3ccc(C(=O)N4CCN(CCCN(C)C)CC4)cc3)C(=O)[C@@H]3CC=CC[C@H]23)cc1OCC.Cl.Cl	248 °C (dec.)
CCOc1ccc(C2=NN(c3ccc(C(=O)N4CCN(c5nc(-c6ccccc6)ns5)CC4)cc3)C(=O)[C@@H]3CC=CC[C@H]23)cc1OCC [Compound 17, (4aS,8aR)-4-(3,4-Diethoxyphenyl)-2-(4-{1-[4-(3-phenyl-1,2,4-thiadiazol-5-yl)-piperazin-1-yl]-methanoyl}-phenyl)-4a,5,8,8a-tetrahydro-2H-phthalazin-1-one]	168 to 169 °C
CCOc1ccc(C2=NN(c3ccc(C(=O)N4CCN(CCN5CCOCC5)CC4)cc3)C(=O)[C@@H]3CC=CC[C@H]23)cc1OCC.Cl.Cl	255 °C (dec.)
CCOc1ccc(C2=NN(c3ccc(C(=O)N4CCN(Cc5ccncc5)CC4)cc3)C(=O)[C@@H]3CC=CC[C@H]23)cc1OCC.Cl.Cl [Compound 25, (4aS,8aR)-4-(3,4-Diethoxy-phenyl)-2-{4-[1-(4-pyridin-4-ylmethyl-piperazin-1-yl)-methanoyl]-phenyl}-4a,5,8,8a-tetrahydro-2H-phthalazin-1-one dihydrochloride]	83 to 85 °C
CCOc1ccc(C2=NN(c3ccc(C(=O)N4CCN(c5cnn(-c6ccccc6)c(=O)c5Cl)CC4)cc3)C(=O)[C@@H]3CC=CC[C@H]23)cc1OCC [Compound 12, (4aS,8aR)-2-{4-[4-(5-Chloro-6-oxo-1-phenyl-1,6-dihydro-pyridazin-4-yl)-piperazine-1-carbonyl]-phenyl}-4-(3,4-diethoxy-phenyl)-4a,5,8,8a-tetrahydro-2H-phthalazin-1-one]	148 to 151 °C
CCOc1ccc(C2=NN(c3ccc(C(=O)N4CCN(CCN5CCCC5)CC4)cc3)C(=O)[C@@H]3CC=CC[C@H]23)cc1OCC.Cl.Cl [Compound 24, (4aS,8aR)-4-(3,4-Diethoxy-phenyl)-2-(4-{1-[4-(2-pyrrolidin-1-yl-ethyl)-piperazin-1-yl]-methanoyl}-phenyl)-4a,5,8,8a-tetrahydro-2H-phthalazin-1-one dihydrochloride]	185 to 186 °C
CCOc1ccc(C2=NN(c3ccc(C(=O)N4CCN(c5ccc([N+](=O)[O-])cn5)CC4)cc3)C(=O)C3CC=CCC23)cc1OCC (as salt: hydrochloride) [Compound 18, (4aS,8aR)-4-(3,4-Diethoxyohenyl)-2-(4-{1-[4-(5-nitro-pyridin-2-yl)-piperazin-1-yl]-methanoyl}-phenyl)-4a,5,8,8a-tetrahydro-2H-phthalazin-1-one hydrochloride]	117 to 118 °C
CCOc1ccc(C2=NN(c3ccc(S(=O)(=O)N4CCN(c5ccccn5)CC4)cc3)C(=O)[C@H]3CC=CC[C@@H]23)cc1OCC (relative stereo) [Compound 6, (cis)-4-(3,4-Diethoxyphenyl)-2-[4-(4-pyridin-2-yl-piperazine-1-sulfonyl)-phenyl]-4a,5,8,8a-tetrahydro-2H-phthalazin-1-one]	181 to 182 °C
COc1ccc(C2=NN(c3ccc(C(=O)N4CCN(C(=O)c5ccco5)CC4)cc3)C(=O)C3CC=CCC23)c2c1OC(C)(C)C2 [Compound 9, (4aS,8aR)-2-(4-{1-[4-(1-furan-2-yl-methanoyl)-piperazin-1-yl]-methanoyl}-phenyl)-4-(7-methoxy-2,2-dimethyl-2,3-dihydrobenzofuran-4-yl)-4a,5,8,8a-tetrahydro-2-phthalazin-1-one]	138 to 140 °C
